{"source": "ChEMBL document CHEMBL4308841", "about": "“Synthesis, in vitro antiproliferative activity, and kinase inhibitory effects of pyrazole-containing diarylureas and diarylamides” (Eur J Med Chem, 2018)", "assay_type_in_all_cases": "functional, cell-based", "key": {"MOLT-4": {"test_system": "MOLT-4", "test": "Growth inhibition of human MOLT4 cells incubated for 48 hrs by sulforhodamine B assay", "conditions": "MOLT-4, 48 h, read-out: TGI"}, "NCI-H522": {"test_system": "NCI-H522", "test": "Growth inhibition of human NCI-H522 cells incubated for 48 hrs by sulforhodamine B assay", "conditions": "NCI-H522, 48 h"}, "RPMI-8226": {"test_system": "RPMI-8226", "test": "Growth inhibition of human RPMI8226 cells incubated for 48 hrs by sulforhodamine B assay", "conditions": "RPMI-8226, 48 h"}, "KM12": {"test_system": "KM12", "test": "Growth inhibition of human KM12 cells incubated for 48 hrs by sulforhodamine B assay", "conditions": "KM12, 48 h"}, "SK-MEL-5": {"test_system": "SK-MEL-5", "test": "Growth inhibition of human SK-MEL-5 cells incubated for 48 hrs by sulforhodamine B assay", "conditions": "SK-MEL-5, 48 h"}, "Malme-3M": {"test_system": "Malme-3M", "test": "Growth inhibition of human MALME-3M cells incubated for 48 hrs by sulforhodamine B assay"}, "T47D": {"test_system": "T47D", "test": "Growth inhibition of human T47D cells incubated for 48 hrs by sulforhodamine B assay"}, "MDA-MB-468": {"test_system": "MDA-MB-468", "test": "Growth inhibition of human MDA-MB-468 cells incubated for 48 hrs by sulforhodamine B assay", "conditions": "MDA-MB-468, 48 h"}, "HOP-92": {"test_system": "HOP-92", "test": "Growth inhibition of human HOP92 cells incubated for 48 hrs by sulforhodamine B assay", "conditions": "HOP-92, 48 h"}, "M14": {"test_system": "M14", "test": "Growth inhibition of human M14 cells incubated for 48 hrs by sulforhodamine B assay", "conditions": "M14, 48 h"}, "SF-539": {"test_system": "SF-539", "test": "Growth inhibition of human SF539 cells incubated for 48 hrs by sulforhodamine B assay", "conditions": "SF-539, 48 h"}, "UACC-62": {"test_system": "UACC-62", "test": "Growth inhibition of human UACC62 cells incubated for 48 hrs by sulforhodamine B assay", "conditions": "UACC-62, 48 h"}, "PC-3": {"test_system": "PC-3", "test": "Growth inhibition of human PC3 cells incubated for 48 hrs by sulforhodamine B assay", "conditions": "PC-3, 48 h"}, "UACC-257": {"test_system": "UACC-257", "test": "Growth inhibition of human UACC257 cells incubated for 48 hrs by sulforhodamine B assay", "conditions": "UACC-257, 48 h"}, "HL-60(TB)": {"test_system": "HL-60(TB)", "test": "Growth inhibition of human HL-60(TB) cells incubated for 48 hrs by sulforhodamine B assay", "conditions": "HL-60, 48 h"}, "CCRF-CEM": {"test_system": "CCRF-CEM", "test": "Growth inhibition of human CCRF-CEM cells incubated for 48 hrs by sulforhodamine B assay"}, "MCF7": {"test_system": "MCF7", "test": "Growth inhibition of human MCF7 cells incubated for 48 hrs by sulforhodamine B assay", "conditions": "MCF7, 48 h, read-out: TGI"}, "MDA-MB-231": {"test_system": "MDA-MB-231", "test": "Growth inhibition of human MDA-MB-231 cells incubated for 48 hrs by sulforhodamine B assay", "conditions": "MDA-MB-231, 48 h"}, "ACHN": {"test_system": "ACHN", "test": "Growth inhibition of human ACHN cells incubated for 48 hrs by sulforhodamine B assay", "conditions": "read-out: TGI"}, "NCI/ADR-RES": {"test_system": "NCI/ADR-RES", "test": "Growth inhibition of human NCI/ADR-RES cells incubated for 48 hrs by sulforhodamine B assay", "conditions": "read-out: TGI"}, "COLO 205": {"test_system": "COLO 205", "test": "Growth inhibition of human COLO205 cells incubated for 48 hrs by sulforhodamine B assay", "conditions": "COLO 205, 48 h"}, "HT-29": {"test_system": "HT-29", "test": "Growth inhibition of human HT-29 cells incubated for 48 hrs by sulforhodamine B assay", "conditions": "HT-29, 48 h"}, "MDA-MB-435": {"test_system": "MDA-MB-435", "test": "Growth inhibition of human MDA-MB-435 cells incubated for 48 hrs by sulforhodamine B assay", "conditions": "MDA-MB-435, 48 h"}, "IGROV-1": {"test_system": "IGROV-1", "test": "Growth inhibition of human IGROV1 cells incubated for 48 hrs by sulforhodamine B assay", "conditions": "IGROV-1, 48 h, read-out: TGI"}, "HCT-116": {"test_system": "HCT-116", "test": "Growth inhibition of human HCT116 cells incubated for 48 hrs by sulforhodamine B assay", "conditions": "HCT-116, 48 h"}, "HOP-62": {"test_system": "HOP-62", "test": "Growth inhibition of human HOP62 cells incubated for 48 hrs by sulforhodamine B assay", "conditions": "HOP-62, 48 h"}, "NCI-H226": {"test_system": "NCI-H226", "test": "Growth inhibition of human NCI-H226 cells incubated for 48 hrs by sulforhodamine B assay", "conditions": "NCI-H226, 48 h"}, "SF-295": {"test_system": "SF-295", "test": "Growth inhibition of human SF295 cells incubated for 48 hrs by sulforhodamine B assay", "conditions": "SF-295, 48 h"}, "NCI-H23": {"test_system": "NCI-H23", "test": "Growth inhibition of human NCI-H23 cells incubated for 48 hrs by sulforhodamine B assay", "conditions": "NCI-H23, 48 h"}, "SK-MEL-2": {"test_system": "SK-MEL-2", "test": "Growth inhibition of human SK-MEL-2 cells incubated for 48 hrs by sulforhodamine B assay", "conditions": "SK-MEL-2, 48 h"}, "TK-10": {"test_system": "TK-10", "test": "Growth inhibition of human TK10 cells incubated for 48 hrs by sulforhodamine B assay", "conditions": "TK-10, 48 h"}}}
{"compound": "CNC(=O)c1cc(Oc2ccc(NC(=O)Nc3ccc(Cl)c(C(F)(F)F)c3)cc2)ccn1", "note": "[SORAFENIB]", "values": [{"measurement": "TGI", "setting": "MOLT-4", "value": 100000, "unit": "nM"}, {"measurement": "IC50", "setting": "NCI-H522", "value": 2000, "unit": "nM"}, {"measurement": "IC50", "setting": "RPMI-8226", "value": 1580, "unit": "nM"}, {"measurement": "IC50", "setting": "KM12", "value": 1580, "unit": "nM"}, {"measurement": "IC50", "setting": "SK-MEL-5", "value": 1580, "unit": "nM"}, {"measurement": "IC50", "setting": "Malme-3M", "value": 2000, "unit": "nM"}, {"measurement": "IC50", "setting": "T47D", "value": 1580, "unit": "nM"}, {"measurement": "IC50", "setting": "MDA-MB-468", "value": 2000, "unit": "nM"}, {"measurement": "IC50", "setting": "HOP-92", "value": 1580, "unit": "nM"}, {"measurement": "TGI", "setting": "HOP-92; read-out: TGI", "value": 5010, "unit": "nM"}, {"measurement": "IC50", "setting": "M14", "value": 2000, "unit": "nM"}, {"measurement": "IC50", "setting": "SF-539", "value": 1580, "unit": "nM"}, {"measurement": "IC50", "setting": "UACC-62", "value": 1580, "unit": "nM"}, {"measurement": "IC50", "setting": "PC-3", "value": 2000, "unit": "nM"}, {"measurement": "IC50", "setting": "UACC-257", "value": 2000, "unit": "nM"}, {"measurement": "TGI", "setting": "UACC-257; read-out: TGI", "value": 5010, "unit": "nM"}, {"measurement": "IC50", "setting": "HL-60(TB)", "value": 1580, "unit": "nM"}, {"measurement": "TGI", "setting": "HL-60(TB); read-out: TGI", "value": 100000, "unit": "nM"}, {"measurement": "IC50", "setting": "CCRF-CEM", "value": 2000, "unit": "nM"}, {"measurement": "TGI", "setting": "MCF7", "value": 7940, "unit": "nM"}, {"measurement": "IC50", "setting": "MDA-MB-231", "value": 1260, "unit": "nM"}, {"measurement": "TGI", "setting": "ACHN", "value": 10000, "unit": "nM"}, {"measurement": "TGI", "setting": "NCI/ADR-RES", "value": 7940, "unit": "nM"}, {"measurement": "IC50", "setting": "COLO 205", "value": 2000, "unit": "nM"}, {"measurement": "IC50", "setting": "HT-29", "value": 2000, "unit": "nM"}, {"measurement": "IC50", "setting": "MDA-MB-435", "value": 1580, "unit": "nM"}, {"measurement": "TGI", "setting": "IGROV-1", "value": 10000, "unit": "nM"}, {"measurement": "IC50", "setting": "HCT-116", "value": 1580, "unit": "nM"}, {"measurement": "IC50", "setting": "HOP-62", "value": 2000, "unit": "nM"}, {"measurement": "IC50", "setting": "NCI-H226", "value": 2000, "unit": "nM"}, {"measurement": "IC50", "setting": "SF-295", "value": 1580, "unit": "nM"}, {"measurement": "IC50", "setting": "NCI-H23", "value": 2000, "unit": "nM"}, {"measurement": "TGI", "setting": "NCI-H23; read-out: TGI", "value": 5010, "unit": "nM"}, {"measurement": "IC50", "setting": "SK-MEL-2", "value": 2000, "unit": "nM"}, {"measurement": "IC50", "setting": "TK-10", "value": 3980, "unit": "nM"}, {"measurement": "TGI", "setting": "TK-10; read-out: TGI", "value": 10000, "unit": "nM"}]}
